Test system: 60 cancer cell lines (NCI 60 cancer cell line series)
Assay: NCI-DTP in vitro cancer screen, sulforhodamine B (SRB) growth inhibition, 48 hour exposure
Format: cell-based, human
In short: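 Potency is given as mean −log{GI50} from dose–response curves, manually binned into Low, Medium or High sensitivity. Sixty NCI-DTP tumour lines were treated 48 h with a duplicate, five-dose, ten-fold dilution series, and growth read by SRB staining of cell mass.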

O=C1c2c(O)ccc(O)c2C(=O)c2c(NCCNCCO)ccc(NCCNCCO)c21 [Mitoxantrone]
classification of cell line as Low(1), Medium(2), High(3) sensitivity to compound (Breast BT-549 CL5013): 2
classification of cell line as Low(1), Medium(2), High(3) sensitivity to compound (Breast HS-578T CL5006): 2
classification of cell line as Low(1), Medium(2), High(3) sensitivity to compound (Breast MCF7(I) CL5001): 3
classification of cell line as Low(1), Medium(2), High(3) sensitivity to compound (Breast MCF7/ADRr CL5002): 1
classification of cell line as Low(1), Medium(2), High(3) sensitivity to compound (Breast MDA-MB-231 CL5005): 1
classification of cell line as Low(1), Medium(2), High(3) sensitivity to compound (Breast MDA-MB-435 CL5011): 1
classification of cell line as Low(1), Medium(2), High(3) sensitivity to compound (Breast MDA-N CL5012): 1
classification of cell line as Low(1), Medium(2), High(3) sensitivity to compound (Breast T-47D CL5014): 2
classification of cell line as Low(1), Medium(2), High(3) sensitivity to compound (CNS SF-268 CL12014): 2
classification of cell line as Low(1), Medium(2), High(3) sensitivity to compound (CNS SF-295 CL12015): 2
classification of cell line as Low(1), Medium(2), High(3) sensitivity to compound (CNS SF-539 CL12016): 3
classification of cell line as Low(1), Medium(2), High(3) sensitivity to compound (CNS SNB-19 CL12002): 3
classification of cell line as Low(1), Medium(2), High(3) sensitivity to compound (CNS SNB-75(I) CL12005): 3
classification of cell line as Low(1), Medium(2), High(3) sensitivity to compound (CNS U251(I) CL12009): 3
classification of cell line as Low(1), Medium(2), High(3) sensitivity to compound (Colon COLO-250 CL4010): 2
classification of cell line as Low(1), Medium(2), High(3) sensitivity to compound (Colon HCC-2998 CL4002): 1
classification of cell line as Low(1), Medium(2), High(3) sensitivity to compound (Colon HCT-15 CL4015): 1
classification of cell line as Low(1), Medium(2), High(3) sensitivity to compound (Colon HCT-116 CL4003): 2
classification of cell line as Low(1), Medium(2), High(3) sensitivity to compound (Colon HT29(I) CL4001): 1
classification of cell line as Low(1), Medium(2), High(3) sensitivity to compound (Colon KM12 CL4017): 1
classification of cell line as Low(1), Medium(2), High(3) sensitivity to compound (Colon SW-620 CL4009): 2
classification of cell line as Low(1), Medium(2), High(3) sensitivity to compound (Leukemia CCRF-CEM(I) CL7003): 3
classification of cell line as Low(1), Medium(2), High(3) sensitivity to compound (Leukemia HL-60(I) CL7008): 3
classification of cell line as Low(1), Medium(2), High(3) sensitivity to compound (Leukemia K562(I) CL7005): 2
classification of cell line as Low(1), Medium(2), High(3) sensitivity to compound (Leukemia MOLT-4 CL7006): 3
classification of cell line as Low(1), Medium(2), High(3) sensitivity to compound (Leukemia RPMI-8226(I) CL7010): 2
classification of cell line as Low(1), Medium(2), High(3) sensitivity to compound (Leukemia SR CL7019): 3
classification of cell line as Low(1), Medium(2), High(3) sensitivity to compound (Melanoma LOX IMVI CL10001): 2
classification of cell line as Low(1), Medium(2), High(3) sensitivity to compound (Melanoma M14 CL10014): 2
classification of cell line as Low(1), Medium(2), High(3) sensitivity to compound (Melanoma MALME-3M CL10002): 2
classification of cell line as Low(1), Medium(2), High(3) sensitivity to compound (Melanoma SK-MEL-2 CL10005): 1
classification of cell line as Low(1), Medium(2), High(3) sensitivity to compound (Melanoma SK-MEL-5 CL10007): 2
classification of cell line as Low(1), Medium(2), High(3) sensitivity to compound (Melanoma SK-MEL-28 CL10008): 1
classification of cell line as Low(1), Medium(2), High(3) sensitivity to compound (Melanoma UACC-62 CL10020): 2
classification of cell line as Low(1), Medium(2), High(3) sensitivity to compound (Melanoma UACC-257 CL10021): 1
classification of cell line as Low(1), Medium(2), High(3) sensitivity to compound (NSCLC A549/ATCC CL1004): 3
classification of cell line as Low(1), Medium(2), High(3) sensitivity to compound (NSCLC EKVX CL1008): 1
classification of cell line as Low(1), Medium(2), High(3) sensitivity to compound (NSCLC HOP-62 CL1026): 3
classification of cell line as Low(1), Medium(2), High(3) sensitivity to compound (NSCLC HOP-92 CL1029): 3
sensitivity classification Low(1)/Medium(2)/High(3) (NSCLC NCI-H23(I) CL1001): 2
classification of cell line as Low(1), Medium(2), High(3) sensitivity to compound (NSCLC NCI-H226 CL1013): 3
sensitivity classification Low(1)/Medium(2)/High(3) (NSCLC NCI-H332M CL1017): 1
sensitivity classification Low(1)/Medium(2)/High(3) (NSCLC NCI-H460 CL1021): 3
sensitivity classification Low(1)/Medium(2)/High(3) (NSCLC NCI-H522 CL1003): 2
sensitivity classification Low(1)/Medium(2)/High(3) (Ovarian IGROV1 CL6010): 2
sensitivity classification Low(1)/Medium(2)/High(3) (Ovarian OVCAR-3 CL6001): 1
sensitivity classification Low(1)/Medium(2)/High(3) (Ovarian OVCAR-4 CL6002): 1
sensitivity classification Low(1)/Medium(2)/High(3) (Ovarian OVCAR-5 CL6003): 1
sensitivity classification Low(1)/Medium(2)/High(3) (Ovarian OVCAR-8 CL6005): 2
sensitivity classification Low(1)/Medium(2)/High(3) (Ovarian SK-OV-3 CL6011): 2
sensitivity classification Low(1)/Medium(2)/High(3) (Prostate DU-145 CL11003): 2
sensitivity classification Low(1)/Medium(2)/High(3) (Prostate PC-3(I) CL11001): 2
sensitivity classification Low(1)/Medium(2)/High(3) (Renal 786-0 CL9018): 2
sensitivity classification Low(1)/Medium(2)/High(3) (Renal A498 CL9013): 2
sensitivity classification Low(1)/Medium(2)/High(3) (Renal ACHN CL9023): 3
sensitivity classification Low(1)/Medium(2)/High(3) (Renal CAKI-1 CL9015): 3
sensitivity classification Low(1)/Medium(2)/High(3) (Renal RXF-393 CL9016): 2
sensitivity classification Low(1)/Medium(2)/High(3) (Renal SN12C CL9008): 3
sensitivity classification Low(1)/Medium(2)/High(3) (Renal TK10 CL9024): 1
sensitivity classification Low(1)/Medium(2)/High(3) (Renal UO-31 CL9004): 1

Sc1ncnc2nc[nH]c12 [6-mercaptopurine]
classification of cell line as Low(1), Medium(2), High(3) sensitivity to compound (Breast BT-549 CL5013): 1
classification of cell line as Low(1), Medium(2), High(3) sensitivity to compound (Breast HS-578T CL5006): 1
classification of cell line as Low(1), Medium(2), High(3) sensitivity to compound (Breast MCF7(I) CL5001): 2
classification of cell line as Low(1), Medium(2), High(3) sensitivity to compound (Breast MCF7/ADRr CL5002): 2
classification of cell line as Low(1), Medium(2), High(3) sensitivity to compound (Breast MDA-MB-231 CL5005): 1
classification of cell line as Low(1), Medium(2), High(3) sensitivity to compound (Breast MDA-MB-435 CL5011): 2
classification of cell line as Low(1), Medium(2), High(3) sensitivity to compound (Breast MDA-N CL5012): 2
classification of cell line as Low(1), Medium(2), High(3) sensitivity to compound (Breast T-47D CL5014): 2
classification of cell line as Low(1), Medium(2), High(3) sensitivity to compound (CNS SF-268 CL12014): 2
classification of cell line as Low(1), Medium(2), High(3) sensitivity to compound (CNS SF-295 CL12015): 2
classification of cell line as Low(1), Medium(2), High(3) sensitivity to compound (CNS SF-539 CL12016): 2
classification of cell line as Low(1), Medium(2), High(3) sensitivity to compound (CNS SNB-19 CL12002): 1
classification of cell line as Low(1), Medium(2), High(3) sensitivity to compound (CNS SNB-75(I) CL12005): 2
classification of cell line as Low(1), Medium(2), High(3) sensitivity to compound (CNS U251(I) CL12009): 2
classification of cell line as Low(1), Medium(2), High(3) sensitivity to compound (Colon COLO-250 CL4010): 2
classification of cell line as Low(1), Medium(2), High(3) sensitivity to compound (Colon HCC-2998 CL4002): 2
classification of cell line as Low(1), Medium(2), High(3) sensitivity to compound (Colon HCT-15 CL4015): 2
classification of cell line as Low(1), Medium(2), High(3) sensitivity to compound (Colon HCT-116 CL4003): 2
classification of cell line as Low(1), Medium(2), High(3) sensitivity to compound (Colon HT29(I) CL4001): 2
classification of cell line as Low(1), Medium(2), High(3) sensitivity to compound (Colon KM12 CL4017): 2
classification of cell line as Low(1), Medium(2), High(3) sensitivity to compound (Colon SW-620 CL4009): 2
classification of cell line as Low(1), Medium(2), High(3) sensitivity to compound (Leukemia CCRF-CEM(I) CL7003): 3
classification of cell line as Low(1), Medium(2), High(3) sensitivity to compound (Leukemia HL-60(I) CL7008): 2
classification of cell line as Low(1), Medium(2), High(3) sensitivity to compound (Leukemia K562(I) CL7005): 3
classification of cell line as Low(1), Medium(2), High(3) sensitivity to compound (Leukemia MOLT-4 CL7006): 2
classification of cell line as Low(1), Medium(2), High(3) sensitivity to compound (Leukemia RPMI-8226(I) CL7010): 2
classification of cell line as Low(1), Medium(2), High(3) sensitivity to compound (Leukemia SR CL7019): 3
classification of cell line as Low(1), Medium(2), High(3) sensitivity to compound (Melanoma LOX IMVI CL10001): 3
classification of cell line as Low(1), Medium(2), High(3) sensitivity to compound (Melanoma M14 CL10014): 3
classification of cell line as Low(1), Medium(2), High(3) sensitivity to compound (Melanoma MALME-3M CL10002): 2
classification of cell line as Low(1), Medium(2), High(3) sensitivity to compound (Melanoma SK-MEL-2 CL10005): 2
classification of cell line as Low(1), Medium(2), High(3) sensitivity to compound (Melanoma SK-MEL-5 CL10007): 2
classification of cell line as Low(1), Medium(2), High(3) sensitivity to compound (Melanoma SK-MEL-28 CL10008): 1
classification of cell line as Low(1), Medium(2), High(3) sensitivity to compound (Melanoma UACC-62 CL10020): 2
classification of cell line as Low(1), Medium(2), High(3) sensitivity to compound (Melanoma UACC-257 CL10021): 1
classification of cell line as Low(1), Medium(2), High(3) sensitivity to compound (NSCLC A549/ATCC CL1004): 1
classification of cell line as Low(1), Medium(2), High(3) sensitivity to compound (NSCLC EKVX CL1008): 1
classification of cell line as Low(1), Medium(2), High(3) sensitivity to compound (NSCLC HOP-62 CL1026): 2
classification of cell line as Low(1), Medium(2), High(3) sensitivity to compound (NSCLC HOP-92 CL1029): 2
sensitivity classification Low(1)/Medium(2)/High(3) (NSCLC NCI-H23(I) CL1001): 2
classification of cell line as Low(1), Medium(2), High(3) sensitivity to compound (NSCLC NCI-H226 CL1013): 1
sensitivity classification Low(1)/Medium(2)/High(3) (NSCLC NCI-H332M CL1017): 2
sensitivity classification Low(1)/Medium(2)/High(3) (NSCLC NCI-H460 CL1021): 2
sensitivity classification Low(1)/Medium(2)/High(3) (NSCLC NCI-H522 CL1003): 2
sensitivity classification Low(1)/Medium(2)/High(3) (Ovarian IGROV1 CL6010): 2
sensitivity classification Low(1)/Medium(2)/High(3) (Ovarian OVCAR-3 CL6001): 3
sensitivity classification Low(1)/Medium(2)/High(3) (Ovarian OVCAR-4 CL6002): 2
sensitivity classification Low(1)/Medium(2)/High(3) (Ovarian OVCAR-5 CL6003): 2
sensitivity classification Low(1)/Medium(2)/High(3) (Ovarian OVCAR-8 CL6005): 2
sensitivity classification Low(1)/Medium(2)/High(3) (Ovarian SK-OV-3 CL6011): 3
sensitivity classification Low(1)/Medium(2)/High(3) (Prostate DU-145 CL11003): 2
sensitivity classification Low(1)/Medium(2)/High(3) (Prostate PC-3(I) CL11001): 2
sensitivity classification Low(1)/Medium(2)/High(3) (Renal 786-0 CL9018): 2
sensitivity classification Low(1)/Medium(2)/High(3) (Renal A498 CL9013): 1
sensitivity classification Low(1)/Medium(2)/High(3) (Renal ACHN CL9023): 2
sensitivity classification Low(1)/Medium(2)/High(3) (Renal CAKI-1 CL9015): 2
sensitivity classification Low(1)/Medium(2)/High(3) (Renal RXF-393 CL9016): 1
sensitivity classification Low(1)/Medium(2)/High(3) (Renal SN12C CL9008): 1
sensitivity classification Low(1)/Medium(2)/High(3) (Renal TK10 CL9024): 2
sensitivity classification Low(1)/Medium(2)/High(3) (Renal UO-31 CL9004): 2
